According to ChEMBL document CHEMBL1201862, “PubChem BioAssay data set” (2004):
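These data come from cells grown in 96-well plates and exposed to compound for 48 hours at five concentrations. At the GI50, growth is halved.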 Calls of active or inactive are those of the source. Rule as the data show it: active = GI50 up to about 1.1 µM and inactive = higher.

Key:
Experiment in all cases: NCI tumour cell line growth inhibition, 48 h
786-0 = system: 786-0
A498 = system: A498
A549 = system: A549
ACHN = system: ACHN
CAKI-1 = system: CAKI-1
CCRF-CEM = system: CCRF-CEM
COLO 205 = system: COLO 205
DLD-1 = system: DLD-1
DMS-114 = system: DMS-114
DMS-273 = system: DMS-273
DU-145 = system: DU-145
EKVX = system: EKVX
HCC 2998 = system: HCC 2998
HCT-116 = system: HCT-116
HL-60 = system: HL-60
HOP-18 = system: HOP-18
HOP-92 = system: HOP-92
HT-29 = system: HT-29
IGROV-1 = system: IGROV-1
K562 = system: K562
KM-20L2 = system: KM-20L2
KM12 = system: KM12
LOX IMVI = system: LOX IMVI
LXFL 529 = system: LXFL 529
M14 = system: M14
M19-MEL = system: M19-MEL
MOLT-4 = system: MOLT-4
Malme-3M = system: Malme-3M
NCI-H226 = system: NCI-H226
NCI-H23 = system: NCI-H23
NCI-H460 = system: NCI-H460
NCI-H522 = system: NCI-H522
OVCAR-3 = system: OVCAR-3
OVCAR-4 = system: OVCAR-4
OVCAR-5 = system: OVCAR-5
OVCAR-8 = system: OVCAR-8
RPMI-8226 = system: RPMI-8226
RXF 393 = system: RXF 393
SF-268 = system: SF-268
SF-295 = system: SF-295
SF-539 = system: SF-539
SK-MEL-28 = system: SK-MEL-28
SK-MEL-2 = system: SK-MEL-2
SK-MEL-5 = system: SK-MEL-5
SK-OV-3 = system: SK-OV-3
SN12C = system: SN12C
SNB-19 = system: SNB-19
SNB-75 = system: SNB-75
SNB-78 = system: SNB-78
SR = system: SR
SW-620 = system: SW-620
TK-10 = system: TK-10
U-251 = system: U-251
UACC-257 = system: UACC-257
UACC-62 = system: UACC-62
UO-31 = system: UO-31
XF498 = system: XF498
HCT-15 = system: HCT-15
HOP-62 = system: HOP-62
RXF 631 = system: RXF 631

Measured: GI50

C=C(CN(CC(=C)C(=O)c1ccccc1)C(C)(C)C)C(=O)c1ccccc1
inactive: 786-0 11.3 µM | A498 18.3 µM | A549 28.4 µM | ACHN 8.99 µM | CAKI-1 4.28 µM | CCRF-CEM 1.5 µM | COLO 205 2.65 µM | DLD-1 2.9 µM | DMS-114 16.9 µM | DMS-273 16.7 µM | DU-145 19.6 µM | EKVX 18.9 µM | HCC 2998 19 µM | HCT-116 13.8 µM | HL-60 2.53 µM | HOP-18 5.42 µM | HOP-92 5.62 µM | HT-29 18.1 µM | IGROV-1 20.5 µM | K562 3.01 µM | KM-20L2 18.7 µM | KM12 13 µM | LOX IMVI 16.4 µM | LXFL 529 3.84 µM | M14 10.5 µM | M19-MEL 15.7 µM | MOLT-4 2.49 µM | Malme-3M 15.3 µM | NCI-H226 24 µM | NCI-H23 16.4 µM | NCI-H460 20.6 µM | NCI-H522 2.86 µM | OVCAR-3 13.8 µM | OVCAR-4 11.6 µM | OVCAR-5 19.6 µM | OVCAR-8 20.5 µM | RPMI-8226 4.38 µM | RXF 393 5.36 µM | SF-268 12.2 µM | SF-295 28.3 µM | SF-539 16.8 µM | SK-MEL-28 16.5 µM | SK-MEL-2 18.2 µM | SK-MEL-5 16.8 µM | SK-OV-3 18.4 µM | SN12C 16.3 µM | SNB-19 23.3 µM | SNB-75 12.8 µM | SNB-78 25.5 µM | SR 2.1 µM | SW-620 2.82 µM | TK-10 13.8 µM | U-251 20.5 µM | UACC-257 17 µM | UACC-62 17.2 µM | UO-31 11.7 µM | XF498 6.58 µM

Cc1cc(=O)cc2sc3c(C)cccc3nc1-2
inactive: 786-0 17.6 µM | A498 23.3 µM | A549 63.5 µM | ACHN 49.1 µM | CAKI-1 39.9 µM | CCRF-CEM 15.4 µM | COLO 205 18.4 µM | DLD-1 22.1 µM | DMS-273 83.6 µM | HCC 2998 51.4 µM | HCT-116 22.4 µM | HL-60 18.9 µM | HOP-18 41.9 µM | HOP-62 95.3 µM | HOP-92 22.4 µM | HT-29 35.1 µM | IGROV-1 24.9 µM | K562 23.6 µM | KM12 22.5 µM | LOX IMVI 17.3 µM | LXFL 529 12.2 µM | M14 21.8 µM | M19-MEL 19.5 µM | MOLT-4 14.4 µM | Malme-3M 92.7 µM | NCI-H23 37.2 µM | NCI-H460 25.4 µM | NCI-H522 25.1 µM | OVCAR-3 15.5 µM | OVCAR-4 15.8 µM | OVCAR-5 49.9 µM | OVCAR-8 27.7 µM | RPMI-8226 19.9 µM | RXF 393 35.4 µM | RXF 631 > 100 µM | SF-268 11.5 µM | SF-295 35 µM | SF-539 31.1 µM | SK-MEL-28 23.1 µM | SK-MEL-2 17.7 µM | SK-MEL-5 17.7 µM | SK-OV-3 > 100 µM | SN12C 23.6 µM | SNB-19 > 100 µM | SNB-75 69.5 µM | SNB-78 53.6 µM | SR 22.9 µM | SW-620 4.56 µM | TK-10 32.7 µM | U-251 37.1 µM | UACC-257 62.8 µM | UO-31 28.6 µM
48.1 µM: HCT-15

CN1C(=O)C2C=CC1C1CCC2N(C)C1=O (configuration not stated)
> 100 µM: HCT-15
inactive: 786-0 > 100 µM | A498 > 100 µM | A549 > 100 µM | CAKI-1 > 100 µM | CCRF-CEM > 100 µM | COLO 205 > 100 µM | DLD-1 > 100 µM | DMS-114 > 100 µM | DMS-273 > 100 µM | EKVX > 100 µM | HCC 2998 > 100 µM | HCT-116 > 100 µM | HL-60 > 100 µM | HOP-18 > 100 µM | HOP-92 > 100 µM | HT-29 > 100 µM | IGROV-1 > 100 µM | K562 > 100 µM | KM12 > 100 µM | LOX IMVI > 100 µM | LXFL 529 > 100 µM | M14 > 100 µM | M19-MEL > 100 µM | MOLT-4 > 100 µM | Malme-3M > 100 µM | NCI-H226 > 100 µM | NCI-H23 > 100 µM | NCI-H522 > 100 µM | OVCAR-3 > 100 µM | OVCAR-4 > 100 µM | OVCAR-5 > 100 µM | OVCAR-8 > 100 µM | RPMI-8226 > 100 µM | RXF 393 > 100 µM | RXF 631 > 100 µM | SF-268 > 100 µM | SF-295 > 100 µM | SF-539 > 100 µM | SK-MEL-28 > 100 µM | SK-MEL-2 > 100 µM | SK-MEL-5 > 100 µM | SK-OV-3 > 100 µM | SN12C > 100 µM | SNB-19 > 100 µM | SNB-75 > 100 µM | SNB-78 > 100 µM | SW-620 > 100 µM | TK-10 > 100 µM | U-251 > 100 µM | UACC-257 > 100 µM | UACC-62 > 100 µM | UO-31 > 100 µM

O=C(CCCC(=O)Nc1ccc(Cl)cc1Cl)CC(=O)c1ccc2ccccc2c1
> 100 µM: HCT-15
inactive: 786-0 > 100 µM | A549 > 100 µM | ACHN > 100 µM | CAKI-1 > 100 µM | CCRF-CEM > 100 µM | COLO 205 > 100 µM | DLD-1 > 100 µM | DMS-114 > 100 µM | DMS-273 > 100 µM | EKVX > 100 µM | HCC 2998 > 100 µM | HCT-116 > 100 µM | HL-60 > 100 µM | HOP-18 > 100 µM | HOP-62 > 100 µM | HOP-92 96.6 µM | HT-29 > 100 µM | IGROV-1 > 100 µM | K562 > 100 µM | KM-20L2 > 100 µM | KM12 > 100 µM | LOX IMVI > 100 µM | LXFL 529 > 100 µM | M14 > 100 µM | M19-MEL > 100 µM | MOLT-4 > 100 µM | Malme-3M > 100 µM | NCI-H226 > 100 µM | NCI-H23 > 100 µM | NCI-H460 > 100 µM | OVCAR-3 > 100 µM | OVCAR-4 > 100 µM | OVCAR-5 > 100 µM | OVCAR-8 > 100 µM | RXF 393 10.8 µM | RXF 631 > 100 µM | SF-268 > 100 µM | SF-295 > 100 µM | SF-539 > 100 µM | SK-MEL-28 > 100 µM | SK-MEL-2 > 100 µM | SK-MEL-5 > 100 µM | SK-OV-3 > 100 µM | SN12C > 100 µM | SNB-19 > 100 µM | SNB-78 > 100 µM | SW-620 > 100 µM | TK-10 > 100 µM | U-251 > 100 µM | UACC-257 > 100 µM | UACC-62 > 100 µM | UO-31 > 100 µM

COc1cc(/C=C/C(=O)c2sc(-n3nc(-c4ccccc4)cc3-c3ccccc3)nc2C)ccc1O
28.5 µM: HCT-15
inactive: 786-0 > 100 µM | A498 > 100 µM | A549 > 100 µM | ACHN > 100 µM | CAKI-1 6.64 µM | CCRF-CEM > 100 µM | COLO 205 > 100 µM | DLD-1 > 100 µM | DMS-114 5.35 µM | DMS-273 > 100 µM | EKVX 4.7 µM | HCC 2998 > 100 µM | HL-60 49.9 µM | HOP-18 26.5 µM | HOP-62 > 100 µM | HOP-92 2.47 µM | IGROV-1 94.6 µM | K562 32.7 µM | KM-20L2 > 100 µM | KM12 15.5 µM | LOX IMVI > 100 µM | M19-MEL > 100 µM | MOLT-4 17.5 µM | Malme-3M > 100 µM | NCI-H226 > 100 µM | NCI-H23 > 100 µM | NCI-H460 > 100 µM | NCI-H522 14.5 µM | OVCAR-3 > 100 µM | OVCAR-5 > 100 µM | OVCAR-8 > 100 µM | RPMI-8226 > 100 µM | RXF 393 13 µM | RXF 631 > 100 µM | SF-268 > 100 µM | SF-295 57 µM | SF-539 > 100 µM | SK-MEL-28 > 100 µM | SK-MEL-2 > 100 µM | SK-MEL-5 55.2 µM | SK-OV-3 > 100 µM | SN12C > 100 µM | SNB-75 7.36 µM | SNB-78 > 100 µM | SW-620 > 100 µM | TK-10 > 100 µM | U-251 > 100 µM | UACC-257 > 100 µM | UACC-62 > 100 µM | UO-31 > 100 µM
